Test results reported in ChEMBL document CHEMBL1146637, “Structure-activity relationship in the oxazolidinone-quinolone hybrid series: influence of the central spacer on the antibacterial activity and the mode of action” (Bioorg Med Chem Lett, 2003).
In brackets after ≈: the same amount, converted by molar mass.

test system: Escherichia coli; assay: In vitro antibacterial activity against Escherichia coli ATCC 25922 (Ecol) was determined; format: functional

Row | SMILES | MIC
1 | CC(=O)NC[C@H]1CN(c2ccc(OCCC3CCN(c4nc5c(cc4F)c(=O)c(C(=O)O)cn5C4CC4)C3)c(F)c2)C(=O)O1 (stereo not given in full) | 2 µg/mL (≈ 3.27 µM)
2 | CC(=O)NC[C@H]1CN(c2ccc(OC[C@@H]3CCN(c4nc5c(cc4F)c(=O)c(C(=O)O)cn5C4CC4)C3)c(F)c2)C(=O)O1 | 1 µg/mL (≈ 1.67 µM)
3 | CC(=O)NC[C@H]1CN(c2ccc(OC3CCN(c4nc5c(cc4F)c(=O)c(C(=O)O)cn5C4CC4)CC3)c(F)c2)C(=O)O1 | 32 µg/mL (≈ 53.5 µM)
4 | CC(=O)NC[C@H]1CN(c2ccc(OC3CCCN(c4nc5c(cc4F)c(=O)c(C(=O)O)cn5C4CC4)CC3)c(F)c2)C(=O)O1 (stereo not given in full) | 8 µg/mL (≈ 13.1 µM)

test system: not listed separately; assay: Inhibitory activity against Escherichia coli Topoisomerase IV in relaxation assay; format: functional

Row | SMILES | IC50
5 | CC(=O)NC[C@H]1CN(c2ccc(OC3CCN(c4nc5c(cc4F)c(=O)c(C(=O)O)cn5C4CC4)CC3)c(F)c2)C(=O)O1 | 5 µM

test system: Staphylococcus aureus; assay: In vitro antibacterial activity against […] Staphylococcus aureus ATCC 29213 (Saul); format: functional

Row | SMILES | MIC
6 | CC(=O)NC[C@H]1CN(c2ccc(OCCC3CCN(c4nc5c(cc4F)c(=O)c(C(=O)O)cn5C4CC4)C3)c(F)c2)C(=O)O1 (stereo not given in full) | 0.125 µg/mL (≈ 0.204 µM)
7 | CC(=O)NC[C@H]1CN(c2ccc(OC[C@@H]3CCN(c4nc5c(cc4F)c(=O)c(C(=O)O)cn5C4CC4)C3)c(F)c2)C(=O)O1 | ≤ 0.06 µg/mL
8 | CC(=O)NC[C@H]1CN(c2ccc(OC3CCN(c4nc5c(cc4F)c(=O)c(C(=O)O)cn5C4CC4)CC3)c(F)c2)C(=O)O1 | 0.25 µg/mL (≈ 0.418 µM)
9 | CC(=O)NC[C@H]1CN(c2ccc(OC3CCCN(c4nc5c(cc4F)c(=O)c(C(=O)O)cn5C4CC4)CC3)c(F)c2)C(=O)O1 (stereo not given in full) | 0.5 µg/mL (≈ 0.818 µM)

test system: Enterococcus faecalis; assay: In vitro antibacterial activity against Enterococcus faecalis ATCC 29212 (Efs) was determined; format: functional

Row | SMILES | MIC
10 | CC(=O)NC[C@H]1CN(c2ccc(OCCC3CCN(c4nc5c(cc4F)c(=O)c(C(=O)O)cn5C4CC4)C3)c(F)c2)C(=O)O1 (stereo not given in full) | 0.06 µg/mL (≈ 0.0981 µM)
11 | CC(=O)NC[C@H]1CN(c2ccc(OC[C@@H]3CCN(c4nc5c(cc4F)c(=O)c(C(=O)O)cn5C4CC4)C3)c(F)c2)C(=O)O1 | 0.125 µg/mL (≈ 0.209 µM)
12 | CC(=O)NC[C@H]1CN(c2ccc(OC3CCN(c4nc5c(cc4F)c(=O)c(C(=O)O)cn5C4CC4)CC3)c(F)c2)C(=O)O1 | 0.125 µg/mL (≈ 0.209 µM)
13 | CC(=O)NC[C@H]1CN(c2ccc(OC3CCCN(c4nc5c(cc4F)c(=O)c(C(=O)O)cn5C4CC4)CC3)c(F)c2)C(=O)O1 (stereo not given in full) | 0.25 µg/mL (≈ 0.409 µM)

test system: Staphylococcus aureus; assay: In vitro antibacterial activity against ciprofloxacin and methicillin resistant Staphylococcus aureus (Sau2CIP) was determined; format: functional

Row | SMILES | MIC
14 | CC(=O)NC[C@H]1CN(c2ccc(OCCC3CCN(c4nc5c(cc4F)c(=O)c(C(=O)O)cn5C4CC4)C3)c(F)c2)C(=O)O1 (stereo not given in full) | 0.125 µg/mL (≈ 0.204 µM)
15 | CC(=O)NC[C@H]1CN(c2ccc(OC[C@@H]3CCN(c4nc5c(cc4F)c(=O)c(C(=O)O)cn5C4CC4)C3)c(F)c2)C(=O)O1 | 0.25 µg/mL (≈ 0.418 µM)
16 | CC(=O)NC[C@H]1CN(c2ccc(OC3CCN(c4nc5c(cc4F)c(=O)c(C(=O)O)cn5C4CC4)CC3)c(F)c2)C(=O)O1 | 0.25 µg/mL (≈ 0.418 µM)
17 | CC(=O)NC[C@H]1CN(c2ccc(OC3CCCN(c4nc5c(cc4F)c(=O)c(C(=O)O)cn5C4CC4)CC3)c(F)c2)C(=O)O1 (stereo not given in full) | 0.25 µg/mL (≈ 0.409 µM)

target: DNA gyrase (Escherichia coli, UniProt P0AES4+P0AES6); assay: Inhibitory activity against DNA gyrase enzyme was determined by supercoiling assay with Escherichia coli DNA gyrase; format: protein-complex assay

Row | SMILES | IC50
18 | CC(=O)NC[C@H]1CN(c2ccc(OC3CCN(c4nc5c(cc4F)c(=O)c(C(=O)O)cn5C4CC4)CC3)c(F)c2)C(=O)O1 | 50 µM

test system: Enterococcus faecium; assay: In vitro antibacterial activity against vancomycin and ciprofloxacin resistant Enterococcus faecium (Efm CIP) was determined; format: functional

Row | SMILES | MIC
19 | CC(=O)NC[C@H]1CN(c2ccc(OCCC3CCN(c4nc5c(cc4F)c(=O)c(C(=O)O)cn5C4CC4)C3)c(F)c2)C(=O)O1 (stereo not given in full) | 0.125 µg/mL (≈ 0.204 µM)
20 | CC(=O)NC[C@H]1CN(c2ccc(OC[C@@H]3CCN(c4nc5c(cc4F)c(=O)c(C(=O)O)cn5C4CC4)C3)c(F)c2)C(=O)O1 | 0.5 µg/mL (≈ 0.837 µM)
21 | CC(=O)NC[C@H]1CN(c2ccc(OC3CCN(c4nc5c(cc4F)c(=O)c(C(=O)O)cn5C4CC4)CC3)c(F)c2)C(=O)O1 | 0.25 µg/mL (≈ 0.418 µM)
22 | CC(=O)NC[C@H]1CN(c2ccc(OC3CCCN(c4nc5c(cc4F)c(=O)c(C(=O)O)cn5C4CC4)CC3)c(F)c2)C(=O)O1 (stereo not given in full) | 0.5 µg/mL (≈ 0.818 µM)

test system: Escherichia coli; assay: In vitro inhibitory activity against protein synthesis was determined by transcription/translation assay with Escherichia coli S30 Extract System.; format: functional

Row | SMILES | IC50
23 | CC(=O)NC[C@H]1CN(c2ccc(OC3CCN(c4nc5c(cc4F)c(=O)c(C(=O)O)cn5C4CC4)CC3)c(F)c2)C(=O)O1 | 5.2 µM

test system: Haemophilus influenzae; assay: In vitro antibacterial activity against Haemophilus influenzae 11 (Hin) was determined; format: functional

Row | SMILES | MIC
24 | CC(=O)NC[C@H]1CN(c2ccc(OCCC3CCN(c4nc5c(cc4F)c(=O)c(C(=O)O)cn5C4CC4)C3)c(F)c2)C(=O)O1 (stereo not given in full) | 0.5 µg/mL (≈ 0.818 µM)
25 | CC(=O)NC[C@H]1CN(c2ccc(OC[C@@H]3CCN(c4nc5c(cc4F)c(=O)c(C(=O)O)cn5C4CC4)C3)c(F)c2)C(=O)O1 | 0.125 µg/mL (≈ 0.209 µM)
26 | CC(=O)NC[C@H]1CN(c2ccc(OC3CCN(c4nc5c(cc4F)c(=O)c(C(=O)O)cn5C4CC4)CC3)c(F)c2)C(=O)O1 | 1 µg/mL (≈ 1.67 µM)
27 | CC(=O)NC[C@H]1CN(c2ccc(OC3CCCN(c4nc5c(cc4F)c(=O)c(C(=O)O)cn5C4CC4)CC3)c(F)c2)C(=O)O1 (stereo not given in full) | 1 µg/mL (≈ 1.64 µM)

test system: Escherichia coli; assay: In vitro antibacterial activity against Escherichia coli AS19 (Eco2), permeable mutant was determined; format: functional

Row | SMILES | MIC
28 | CC(=O)NC[C@H]1CN(c2ccc(OCCC3CCN(c4nc5c(cc4F)c(=O)c(C(=O)O)cn5C4CC4)C3)c(F)c2)C(=O)O1 (stereo not given in full) | ≤ 0.06 µg/mL
29 | CC(=O)NC[C@H]1CN(c2ccc(OC[C@@H]3CCN(c4nc5c(cc4F)c(=O)c(C(=O)O)cn5C4CC4)C3)c(F)c2)C(=O)O1 | ≤ 0.06 µg/mL
30 | CC(=O)NC[C@H]1CN(c2ccc(OC3CCN(c4nc5c(cc4F)c(=O)c(C(=O)O)cn5C4CC4)CC3)c(F)c2)C(=O)O1 | 0.25 µg/mL (≈ 0.418 µM)
31 | CC(=O)NC[C@H]1CN(c2ccc(OC3CCCN(c4nc5c(cc4F)c(=O)c(C(=O)O)cn5C4CC4)CC3)c(F)c2)C(=O)O1 (stereo not given in full) | ≤ 0.06 µg/mL

test system: Staphylococcus aureus; assay: In vitro antibacterial activity against oxazolidinone Linezolid resistant Staphylococcus aureus (Sau3LZD) was determined; format: functional

Row | SMILES | MIC
32 | CC(=O)NC[C@H]1CN(c2ccc(OCCC3CCN(c4nc5c(cc4F)c(=O)c(C(=O)O)cn5C4CC4)C3)c(F)c2)C(=O)O1 (stereo not given in full) | 0.125 µg/mL (≈ 0.204 µM)
33 | CC(=O)NC[C@H]1CN(c2ccc(OC[C@@H]3CCN(c4nc5c(cc4F)c(=O)c(C(=O)O)cn5C4CC4)C3)c(F)c2)C(=O)O1 | ≤ 0.06 µg/mL
34 | CC(=O)NC[C@H]1CN(c2ccc(OC3CCN(c4nc5c(cc4F)c(=O)c(C(=O)O)cn5C4CC4)CC3)c(F)c2)C(=O)O1 | 1 µg/mL (≈ 1.67 µM)
35 | CC(=O)NC[C@H]1CN(c2ccc(OC3CCCN(c4nc5c(cc4F)c(=O)c(C(=O)O)cn5C4CC4)CC3)c(F)c2)C(=O)O1 (stereo not given in full) | 0.5 µg/mL (≈ 0.818 µM)
